# Experimental data from a melting point compilation (Tetko et al.; mined from patent text by program, amines drawn as free bases though some values may be those of a salt).
row,melting point [°C],Structure (SMILES)
1,126 to 129,O=CNc1ccccc1N1CCc2cc(Cl)ccc21
2,219 to 221,CC(C)c1cccc(C(C)C)c1NC(=O)NC(Cc1ccccc1)c1ccccc1 (configuration not stated)
3,135 to 136,CCn1ncc(N=O)c1N
4,194 to 195,COc1cc(CCC2OC(=O)NC2=O)ccc1OCc1nc(-c2ccccc2)oc1C (configuration not stated)
5,195 to 196,CN1CCN(c2cccc3c2C[C@H](NC(=O)c2ccccc2)CC3)CC1
6,163 to 165,CCC(C)(O)C(=O)Nc1ccc(S(=O)(=O)c2ccccc2)cc1 (configuration not stated)
7,209 to 210,COc1cc(C2=CCCc3ccccc32)c(Cl)cc1C(=O)N1Cc2cccn2Cc2ccccc21
8,132,CCOC(=O)c1c(N2CCN(C(=O)c3cccs3)CC2)c2cnccc2n(Cc2ccc(F)cc2)c1=O
9,183 to 187,CC(Nc1cc(Br)ccc1[N+](=O)[O-])C(=O)O (configuration not stated)
10,135,Cc1cccc(-c2nc3ccccn3c2-c2ccnc(-c3ccc(NS(=O)(=O)C(F)(F)F)cc3)c2)n1
11,127 to 128,O=C(NCCCc1ccccc1)Nc1ccccn1
12,170 to 172,O=C(O)CCCn1ccc(=O)c(O)c1Cc1ccccc1
13,187 to 190,COC(=O)c1cc(N)c(F)c(Br)n1
14,193 to 194,CC(C)(Cc1cc2cc(OCc3ccc4ccccc4n3)ccc2n1Cc1ccc(Cl)cc1)C(=O)O
15,156 to 159,CC(C)(C)C(=O)COc1nn(CC#N)c(-c2ccc(S(C)(=O)=O)cc2)c1-c1ccc(F)cc1
16,308 to 310,O=C1CCC(N2Cc3c(OCc4ccc(S(=O)(=O)N5CCOCC5)cc4)cccc3C2=O)C(=O)N1 (configuration not stated)
17,51 to 52,Cc1cnc(N)c(Br)n1
18,159 to 161,COC(=O)C1CCC2C3CCC4CC(O)C(O)CC4(C)C3C(NCCC(C)C)CC12C (configuration not stated)
19,110,c1ccc2c(c1)OCCc1c-2n(CCCCCCN2CCCCC2)c2ccccc12
20,168,Oc1ccc2c(c1)CCCC(c1ccccc1)=C2c1ccc(OCCCCCSCCCC(F)(F)F)cc1
21,118 to 119,CCOC(=O)Cc1c(SC)c2cc(F)ccc2n1Cc1ccc(Cl)cc1
22,127 to 128,N#Cc1ccc2c(c1)C(=O)c1cccn1CC2
23,99 to 100,NC(=O)CCN1CC(O)CC1=O (configuration not stated)
24,94,COc1ccc2ccc(OC)c(C=O)c2c1

row,melting point [°C],Structure (SMILES)
1,117,FC(F)(F)C(F)(F)C(F)(F)COc1ccnc(CSc2nc3cscc3[nH]2)c1
2,95.6 to 97.9,CC1(Oc2ccc(N)cc2)C2CC3CC(C2)CC1C3 (configuration not stated)
3,90 to 93,C#CCN(Cc1cc2c(=O)n(CCN(C)C)c(CN3CCCCC3)nc2cc1Cl)c1ccc(C(=O)NCc2cccnc2)cc1
4,182 to 183,CCOC(=O)Nc1cccc(Nc2c3cccc(C)c3nc3c(C(=O)NCCN(C)C)cccc23)c1C
5,186,O=C(N[C@H]1CC[C@H](CCN2CCN(c3nccc4c3OCC4)CC2)CC1)C1CCC1
6,220 to 222,CCOC1=Nc2nc(C(C)(C)C)[nH]c2C2=N[C@H](Cc3ccccc3)CN12
7,197 to 199,CCOC(=O)Cc1n[nH]c(=O)c2c(C)cccc12
8,110 to 111,CC(C)(C)c1cc(C(=O)OCc2ccc(C(=O)OCc3ccccc3)cc2)cc(C(C)(C)C)c1O
9,135 to 137,CON1C(C)(C)CC(OC(=O)CCc2cc(-n3nc4ccccc4n3)c(O)c(C(C)(C)C)c2)CC1(C)C
10,158 to 160,CC(=O)NNC(=O)c1ccncc1
11,167 to 168,C[C@H]([C@H](O)c1ccc(O)c(O)c1)N1CCC(O)(c2ccccc2)CC1 (relative stereo)
12,360 to 362,CCOC(=O)c1cn(C)c2nc3cc(Cl)c(F)cc3cc2c1=O
13,140 to 143,O=C(O)CCCCCCc1ccc(CCNC(=O)c2ccc(Cl)cc2)cc1
14,255 to 256,COc1ccc2cc3c(c(-c4ccc5c(c4)OCO5)c2c1OC)CNC3=O
15,252 to 253,COc1ccc(C#N)cc1/C=C/C(=O)O
16,136 to 137,COc1ccc(S(=O)(=O)n2ccc3ccnc(-c4ccc(F)cc4)c32)cc1
17,147 to 148,O=C1C(=Cc2cccc3ccccc23)CCc2cc(OCCn3ccnc3)ccc21
18,91 to 92,O=CC12CC(c3ccccc31)c1ccc(Cl)cc12 (configuration not stated)
19,155 to 160,O=[N+]([O-])c1ccc(F)cc1CS(=O)(=O)c1cccc2ccccc12
20,49 to 50,CC(C)CC(OC(=O)c1ccncc1)C(=O)OCc1ccccc1 (racemic)
21,172,Cc1cccc(NC(=O)c2ccc3nc(NC4CCN(C)CC4)n(Cc4nc(C)ccc4O)c3c2)c1
22,146 to 148,Cc1nnc2ccc(-c3ccccc3Cl)nn12
23,139 to 140,COc1ccc(O)c2c1C1(CCC2)OCCO1
24,> 260,COc1cc(OC)c(-c2nc3cccnc3[nH]2)cc1C=CC(=O)c1ccc(S(N)(=O)=O)cc1

row,melting point [°C],Structure (SMILES)
1,107 to 108,CC(C)c1ncc(CCCOc2nn(C)cc2CC(=O)O)c(Oc2ccc(Cl)cc2Cl)n1
2,285 to 288,COc1cc2ncc(C#N)c(Nc3cccc(C#N)c3)c2cc1OC
3,135 to 138,CCCCOCCOc1ccc(-c2ccc3c(c2)C=C(C(=O)Nc2ccc(S(=O)Cc4ncnn4C)cc2)CCN3CC(C)C)cc1 (configuration not stated)
4,193 to 194,COc1cc(COc2nn(-c3ccccc3)cc2C=O)ccc1OCc1nc(-c2cccc(O)c2)oc1C
5,106 to 108,CCC1Cc2cc(N)ccc2C1=O (configuration not stated)
6,98 to 100,N#Cc1ccc(Oc2ccccc2)cc1C#N
7,72,C#CCn1c(C(F)(F)F)c(C(=O)OCC)oc1=O
8,146 to 148,CC(N)=NC(=Nc1ccccc1)N1CCOCC1
9,176 to 179,COc1cc2cc(c1Cl)N(C)C(=O)CC(OC(=O)C(C)N(C)C(=O)C(C)C)C1(C)OC1C(C)C1CC(O)(NC(=O)O1)C(OC)C=CC=C(C)C2OC (configuration not stated)
10,150 to 154,CCOC(=O)C1=C(NC(=O)Nc2cc(C(=O)OC(C)C)c(Br)cc2F)CCC1
11,83.5,Clc1ccccc1COc1c(Cl)cc(OCC=C(Br)Br)cc1Cl
12,85 to 88,CC1(C)CCOC1=C(Oc1ccc(Cl)cc1)n1ccnc1
13,184 to 190,Cc1ccc(Nc2nc(-c3ccccn3)cs2)nc1
14,150 to 151,CCOC(=O)/C=C/c1nc(COc2ccc(COc3nn(-c4ccccc4)cc3C=O)cc2OC)c(C)o1
15,186 to 188,COc1ccc(Br)c(Cl)c1C(=O)O
16,162 to 164,CCCCOc1c(CN2C(=O)c3ccccc3C2=O)n(CC(C)(C)C)c(=O)c2ccc(F)cc12
17,248 to 250,CC1NC(=O)NN=C1c1ccc2sc(=O)n(CC(=O)N3CCN(CCO)CC3)c2c1 (configuration not stated)
18,146 to 148,OCc1ncn(CCCc2ccc(OCc3coc(/C=C/c4ccccc4)n3)cc2)c1CO
19,220,COc1cc(OC)c(-c2cc3ccccc3n2C)cc1C=CC(=O)c1ccc(S(=O)(=O)Nc2cc(C)on2)cc1
20,175 to 181,COC(=O)C(C)(C)c1ccc(C(=O)CCCCl)cc1
21,238 to 244,Cc1[nH]c(C(=O)NCCc2ccccn2)c(C)c1-c1nc2ccc(C(=O)c3ccccc3)cc2[nH]1
22,58 to 60,COc1ccc(Sc2sccc2C=O)cc1
23,130 to 132,CCOC(=O)COc1ccc(NC(C)=O)cc1NC(=O)c1ccc(OCCCCc2ccccc2)cc1
24,238 to 240,CC(C)(C)OC(=O)NCc1cccc(C(=O)O)n1

row,melting point [°C],Structure (SMILES)
1,76 to 78,CCCC(=O)c1cnc2c(OC)csc2c1Cl
2,69 to 78,CC(Cc1c[nH]c2ccccc12)(NC(=O)OC1CCCCC1Cl)C(=O)NCCc1ccccc1 (configuration not stated)
3,208 to 209,CN(C)CC1CCCCN1CC(=O)N1c2ccccc2NC(=O)c2cscc21 (configuration not stated)
4,197 to 200,Nc1cc(Oc2ccc3c(C(=O)Nc4cccc(C(F)(F)F)c4)nccc3c2)ncn1
5,264 to 268,Cc1ccc(O)c2[nH]c(Cc3cccnc3)nc12
6,256 to 258,Nc1c(NCCCO)c(=O)c1=O
7,95.5 to 97.2,CCOC(=O)Cc1csc(-c2cccc(O)c2)n1
8,214,Cc1cccc(NC(=O)NCC(=O)N(c2ccccc2)C(C)C(=O)N(C)c2ccccc2)c1 (racemic)
9,320,O=C1Nc2cnc(N3CCN(c4ncccn4)CC3)nc2S/C1=C/c1ccc([N+](=O)[O-])cc1
10,230 to 232,CC(=O)Oc1cc(OC(C)=O)c2ccc(=O)[nH]c2c1
11,172 to 173,O=C(O)C1=Cc2cc(Cl)cc(-c3ccco3)c2OC1C(F)(F)F (configuration not stated)
12,118 to 121,Cc1cc(CCCCNc2nc(CO)nn2C)sc1C=O
13,144,COc1ccc(CNC(=O)[C@@H](NC(=O)[C@H](NCc2ccc(OC)c(OC)c2)[C@H](O)[C@H](Cc2ccccc2)NC(=O)OC(C)(C)C)C(C)C)c(O)c1
14,203 to 204,Cc1cc(C)c2c(c1)c(-c1ccccc1Cl)c(NC(=O)Nc1c(C)cccc1C(C)C)c(=O)n2C
15,105 to 107,Cc1cc(OCCCC(C)(C)C(=O)O)c(C)c(C)c1OCc1ccccc1
16,166 to 167,Cc1cc(C(=O)O)c(C)c2c1SCCC2(C)C
17,171 to 172,COc1cc(OC)c(OC)c(-c2ccc(N(C)CCN(C)c3ccc(-c4cc(OC)cc(OC)c4OC)nc3)cn2)c1
18,103 to 106,O=C(O)CCCc1cc2nc(Cl)ccc2n1S(=O)(=O)c1ccc2nccnc2c1
19,158 to 160,COc1ccc(C2(O)CCN(CC3CN(c4cccc(OC)c4)C(=O)O3)CC2)cc1 (configuration not stated)
20,63 to 67,CC(C(=O)O)C1CC(=O)N(c2ccc(Cl)cc2)C1 (configuration not stated)
21,160 to 165,N#Cc1ccc(C(=CC(=O)N2CCCCC2)n2ccnc2)cc1

row,Structure (SMILES),melting point [°C]
1,CC1CN2CC(=O)N(C)c3ccc(Cl)cc3C2(c2ccccc2)O1 (configuration not stated),142 to 143
2,CCOc1cc2c(cc1OC)C(c1ccc(OC)c(OC)c1)=NN=C(C)C2CC (configuration not stated),125 to 127
3,COC(=O)c1ccc(-c2csc(-c3ccc4c(c3)C(C)(C)CCC4(C)C)c2)cc1,108 to 110
4,OC1(C#Cc2ccc(-c3ccc(F)cc3)cc2)CN2CCC1CC2 (configuration not stated),232 to 233
